Assay results as given in US11918570B2, “Method of treatment for prevention of glucocorticoid toxicity and/or enhancement of muscle regeneration via neutrophil elastase inhibition” (The Research Foundation for The State University of New York, priority 2020, dated 2024).
Entries after “also recorded” stand apart in the source; their conditions may differ.

How the values were obtained:
[1] = system: dystrophin-deficient mice (mdx4cv strain); test: Muscle mass: quadriceps wet weight and diaphragm cross-sectional area; format: in vivo, mouse; conditions: 12 weeks; for prednisolone-induced loss of muscle mass / muscle atrophy: in combination with prednisolone, FIGS. 15, 16; for muscle mass (quadriceps wet weight): single agent, FIG. 15
From the text: FIG. 15 illustrates the wet weight of quadriceps muscle groups dissected from dystrophic mice at treatment start (baseline, Pre-Tr) or after the 12 week administration period, at the time of euthanasia.

[2] = system: dystrophin-deficient mice (mdx4cv strain); test: Myofiber necrosis (mIgG uptake on immunostained cryosections); format: in vivo, mouse; conditions: 12 weeks, FIG. 10
Method: In FIG. 10, myofiber necrosis was measured by calculating the percentage of myofibers that uptake mouse immunoglobulins (mIgG) on immunostained cryosections. IgG are normally present only in the blood and the extracellular matrix within tissues, but are uptaken by necrotic cells that have permeable plasma membranes due to cell damage damage.

[3] = system: dystrophin-deficient mice (mdx4cv strain); test: Diaphragm strip tetanic force and residual force; format: in vivo, mouse
[4] = system: dystrophin-deficient mice (mdx4cv strain); test: Muscle fibrosis, Sirius Red staining of gastrocnemius cryosections; format: in vivo, mouse; conditions: 12 weeks, FIG. 13
Method: FIG. 13 illustrates fibrosis levels of the various cohorts, assessed on cryosections of gastrocnemius muscles from the mice, which were stained with Sirius Red to detect fibrillar collagen. Untreated dystrophic mice were euthanized at the age when treatments start (Pre-tr) and used as baseline for disease progression. Images were analyzed for their fluorescence intensity (Sirius red emits fluorescence in the yellow-red band of the light spectrum) as a measure of collagen abundance per unit area (e.g. per pixel), which was multiplied by the total Sirius red+ area as a proxy for 3D evaluation of fibrillar collagen content.

[5] = system: dystrophin-deficient mice (mdx4cv strain); test: 12-week oral treatment of mdx4cv mice, overall efficacy; format: in vivo, mouse; conditions: elastase inhibitor orally, concomitantly with oral prednisolone
Method: FIG. 1F is a graphical illustration of data gathered from in vivo testing efficacy of a placebo, as compared to the elastase inhibitor Alvelestat, alone at various administration concentrations, and in combination with the glucocorticoid prednisolone at various administration concentrations. In this, and the following figures, the abbreviation “Plcb” refers to administration of a placebo, the abbreviation “Pred” refers to administration of prednisolone at 1 mg/kg/day, the abbreviation “Alv10” refers to the administration of the elastase inhibitor alvelestat at 10 mg/kg/day, and the abbreviation “Alv25” refers to the administration of the elastase inhibitor alvelestat at 25 mg/kg/day.
The administration of the various compounds occurred over a 12-week period, in a controlled randomized, double blinded test using dystrophin-deficient mice (mdx4cv strain). In FIG. 1F, beginning during the tenth week of the test, the mice were exposed to an activity wheel, with the cumulative distance plotted on the y-axis and the number of days spent with the exercise wheel plotted on the x-axis.

[6] = system: myoblasts isolated from a patient affected by Duchenne muscular dystrophy; test: NE-induced myoblast death, DMD patient myoblasts treated with human NE; format: cell-based; conditions: for rescue of NE-induced myoblast death (number of live cells as percentage of untreated Control): DMD patient myoblasts treated with human NE, FIG. 1D; for effectiveness against human NE compared with mouse NE: comparison of FIG. 1D (hNE) and FIG. 1E (mNE)
From the text: (§1) The number of live cells in each condition was counted and plotted as percentage of the number of live cells in the untreated (Control) condition.

Human NE (hNE) = target: T1, Human NE (hNE) (Homo sapiens, UniProt P08246); test: Human NE activity in vitro, cumulative elastase activity over time; format: biochemical; conditions: hNE incubated with various concentration of inhibitor; FIGS. 1A-1C
T1 sequence (P08246 30-267): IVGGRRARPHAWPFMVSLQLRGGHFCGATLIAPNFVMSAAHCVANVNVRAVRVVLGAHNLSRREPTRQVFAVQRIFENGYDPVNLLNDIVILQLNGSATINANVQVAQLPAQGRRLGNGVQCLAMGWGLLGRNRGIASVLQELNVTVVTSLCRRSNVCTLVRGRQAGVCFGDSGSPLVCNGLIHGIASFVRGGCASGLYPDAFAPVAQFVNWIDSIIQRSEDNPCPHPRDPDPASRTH
Method: In FIGS. 1A-1C Human NE (hNE) was incubated for the indicated amount of time (X-axis) either alone (Control, black line) or in the presence of various concentration of inhibitor, as indicated in each graph (colored lines). The cumulative elastase activity detected over time is plotted.
Several methods for measuring elastase enzymatic activity are known in the art. Merely by way of example, elastase activity can be determined by measuring the fluorescence emitted by a fluorigenic peptide such as MeOSuc-Ala-Ala-Pro-Val-AFC or Suc-Ala-Ala-Ala-AMC. Fluorescence may be measured, for example, using a plate reader. Other suitable assays for measuring elastase activity will be known to the skilled person. These may include measuring the product generated by incubation with a fluorescently labelled peptide such as 5-FAM-Arg-Glu-Ala-Val-Val-Tyr or 5-FAM-Ala-Ala-Ala-Phe-Tyr-Asp using an instrument that detects the size of the fluorescently labelled probe.

[7] = system: dystrophin-deficient mice (mdx4cv strain); test: Inflammation transcripts in muscle by RNA sequencing; format: in vivo, mouse; conditions: elastase inhibitor alone, 12 weeks; FIGS. 11A, 11B
Method: In FIGS. 11A and 11B, mRNA was extracted from muscles of the mice, then transcripts were quantified using next generation sequencing. […] Mdx^4cv mice were treated for 12 weeks with either placebo (Plcb, gray boxes) or prednisolone (1 mg/Kg/day, cyan boxes) alone or in combination with the elastase inhibitor alvelestat (Alv) at two different doses (10 mg/Kg/day, pink boxes; 25 mg/Kg/day, purple boxes). Each box-and-whiskers graph represent the levels of a marker of the immune response detected by RNA sequencing (n=6 per treatment group, Y-axis scale on the left). The overlayed line graphs show the effect size of each treatment vs Plcb calculated and plotted as Cohen's d (Y-axis scale on the right). Significance of each treatment vs Plcb: ***=p<0.001, **=p<0.01, *=p<0.05.

[8] = system: dystrophin-deficient mice (mdx4cv strain); test: Serum muscle creatine kinase (mCK) activity; format: in vivo, mouse; conditions: 12 weeks; FIG. 6
From the text: FIG. 6 is a graphical illustration of muscle creatine kinase (mCK) activity for various cohorts of tested mice (including mice pre-treatment with any elastase inhibitor or glucocorticoid) at the conclusion of the 12 week administration period. FIG. 7 is a graphical illustration of MyoD protein levels for various cohorts of tested mice (including mice pre-treatment with any elastase inhibitor or glucocorticoid) at the conclusion of the 12 week administration period. FIG. 8 is a graphical illustration of liver pathology scores for various cohorts of tested mice (including mice pre-treatment, with any elastase inhibitor or glucocorticoid) at the conclusion of the 12 week administration period.

[9] = system: myoblasts from a mouse model of Duchenne muscular dystrophy (mdx4cv); test: NE-induced myoblast death, mdx4cv mouse myoblasts treated with mouse NE; format: cell-based; conditions: FIG. 1E
From the text: as §1

Row | SMILES | muscle mass (quadriceps wet weight) [1] | rescue of NE-induced myoblast death (number of live cells as percentage of untreated Control) [6] | effectiveness against human NE compared with mouse NE [6] | inhibiting human NE activity in vitro (Human NE (hNE)) | rescue of NE-induced myoblast death (number of live cells as percentage of untreated Control) [9] | other results
1 | Cc1c(-c2ccnn2C)cc(C(=O)NCc2ccc(S(C)(=O)=O)cn2)c(=O)n1-c1cccc(C(F)(F)F)c1 [Alvelestat] | increased it | similarly effective at rescuing NE-induced myoblast cell death; also recorded: similarly effective at blocking NE-induced myoblast death | most effective against human NE | similarly potent | similarly effective at blocking NE-induced myoblast death | prednisolone-induced loss of muscle mass / muscle atrophy [1]: partly rescued the prednisolone-induced loss of muscle mass in a dose-dependent manner that appears inversely correlated; prednisolone-induced loss of muscle mass / muscle atrophy ([1]; listed as AZD9668): reduces prednisolone induced muscle atrophy; myofiber necrosis ([2]; alvelestat alone, 10 and 25 mg/kg/day): decreases myofiber necrosis in a dose-dependent manner; also recorded: reduces necrosis; myofiber necrosis / myofiber stability ([2]; combined with prednisolone 1 mg/kg/day): additive affect on myofiber stability; diaphragm weakness (specific tetanic force, residual force) ([3]; alone and in combination with prednisolone, FIGS. 17-19): affects diaphragm weakness independent of muscle loss in a complex manner; muscle fibrosis ([4]; alone): decreases muscle fibrosis; prednisolone-induced fibrosis ([4]; in combination with prednisolone): prevents prednisolone-induced fibrosis; prednisolone efficacy [5]: enhances prednisolone efficacy; inflammation (immune response transcripts) [7]: does not significantly affect inflammation; serum mCK levels (muscle damage) [8]: lowers serum mCK levels
2 | CC(=O)C1=C(C)N(c2cccc(C(F)(F)F)c2)C(=O)N[C@@H]1c1ccc(C#N)nc1 [BAY-678] | – | – | – | – | similarly effective at blocking NE-induced myoblast death | –
3 | COc1cc(C(C)C)c2c(c1)S(=O)(=O)N(COc1cc(=O)n3cccc(OCCN4CCCCC4)c3n1)C2=O [SSR69071] | – | similarly effective at rescuing NE-induced myoblast cell death; also recorded: similarly effective at blocking NE-induced myoblast death | most effective against human NE | similarly potent | similarly effective at blocking NE-induced myoblast death | –
4 | C[C@]12C=CC(=O)C=C1CC[C@@H]1[C@@H]2[C@@H](O)C[C@@]2(C)[C@H]1CC[C@]2(O)C(=O)CO [prednisolone] | dramatically decreased muscle mass | – | – | – | – | residual force at 15 seconds after peak force (percentage of the peak force) ([3]; diaphragm strips, 20 second tetanus, FIG. 19): decline in residual force, which is greater for prednisolone alone
